# pIC50: −log10 of the molar value.
# Molecular target: T1, Recombinant HCV polymerase (Hepatitis C virus genotype 1b, UniProt P26663)
# T1 construct: Recombinant HCV polymerase was tested for its ability to perform primer/template-directed transcription
# Assay: biochemical
# Conditions: inhibition of polymerase-directed transcription; 30 min at 30° C; 30 nM enzyme; cpm data in triplicate
# Procedure, shortened: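 Primer/template-directed RNA synthesis by 2.5 pmol HCV polymerase on poly(rC)300/biotin-dG12 with 1 μM GTP plus α-32P-GTP, in pH 7.2 Tris buffer with 10 mM MgCl2, for 30 min at 30 °C. Products were filter-captured and counted, with 1% DMSO final. IC50 was fitted from triplicate cpm; percent inhibition was reported where IC50 was impractical.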
# T1 sequence (P26663 2420-3010): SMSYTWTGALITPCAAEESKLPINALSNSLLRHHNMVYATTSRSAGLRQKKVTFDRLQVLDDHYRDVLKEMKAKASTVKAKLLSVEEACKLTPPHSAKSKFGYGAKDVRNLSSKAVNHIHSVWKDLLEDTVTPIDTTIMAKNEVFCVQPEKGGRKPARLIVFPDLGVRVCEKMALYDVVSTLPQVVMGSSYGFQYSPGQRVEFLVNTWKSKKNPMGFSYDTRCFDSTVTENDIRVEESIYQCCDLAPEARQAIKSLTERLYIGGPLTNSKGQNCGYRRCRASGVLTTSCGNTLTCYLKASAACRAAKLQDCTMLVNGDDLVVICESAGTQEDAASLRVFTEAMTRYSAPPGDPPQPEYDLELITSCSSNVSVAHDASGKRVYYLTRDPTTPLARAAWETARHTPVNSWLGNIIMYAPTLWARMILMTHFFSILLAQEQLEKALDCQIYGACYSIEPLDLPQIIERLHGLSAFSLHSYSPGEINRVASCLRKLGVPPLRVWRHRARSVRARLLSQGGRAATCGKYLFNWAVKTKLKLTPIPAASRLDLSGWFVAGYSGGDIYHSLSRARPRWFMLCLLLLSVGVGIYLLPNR
row,Compound,pIC50
1,"Cc1cnc2nc(CC3=C(O)CC(CCc4cc(F)c(C(C)(C)C#N)cc4O)(C4CCCC4)OC3=O)nn2c1 (centres unmarked) [A(79), 2-[4-(2-{2-Cyclopentyl-4-hydroxy-5-[(6-methyl[1,2,4]triazolo[1,5-a]pyrimidin-2-yl)methyl]-6-oxo-3,6-dihydro-2H-pyran-2-yl}ethyl)-2-fluoro-5-hydroxyphenyl]-2-methylpropanenitrile]",7.92
2,"Cc1cc(C)n2nc(N(C)C3C(=O)CC(CCc4ccc(C(C)(C)C#N)c(Cl)c4)(C4CCCC4)OC3=O)nc2n1 (centres unmarked) [B(26), 2-[2-Chloro-4-(2-{2-cyclopentyl-5-[(5,7-dimethyl[1,2,4]triazolo[1,5-a]pyrimidin-2-yl)(methyl)amino]-4,6-dioxotetrahydro-2H-pyran-2-yl}ethyl)phenyl]-2-methylpropanenitrile]",4.74
3,"CCc1cc(CCC2(C3CCCC3)CC(O)=C(Cc3nc4nc(C)cc(C)n4n3)C(=O)O2)ccc1CN1CCOCC1 (single isomer, unassigned) [A(157), 6-Cyclopentyl-3-[(5,7-dimethyl[1,2,4]triazolo[1,5-a]pyrimidin-2-yl)methyl]-{2-[3-ethyl-4-(morpholin-4-ylmethyl)phenyl]ethyl}-4-hydroxy-5,6-dihydro-2H-pyran-2-one]",8.00
4,"CCc1cc(CCC2(C3CCCC3)CC(O)=C(Cc3nc4ncc(C)cn4n3)C(=O)O2)c(OC)cn1 (centres unmarked) [A(4), 6-Cyclopentyl-6-[2-(2-ethyl-5-methoxypyridin-4-yl)ethyl]-4-hydroxy-3-[(6-methyl[1,2,4]triazolo[1,5-a]pyrimidin-2-yl)methyl]-5,6-dihydro-2H-pyran-2-one]",8.15
5,"CCC(C#N)(CC)c1ccc(CCC2(C3CCCC3)CC(O)=C(Cc3nc4nc(C)cc(C)n4n3)C(=O)O2)cc1C(F)(F)F (single isomer, unassigned) [A(155), 2-[4-(2-{2-Cyclopentyl-5-[(5,7-dimethyl[1,2,4]triazolo[1,5-a]pyrimidin-2-yl)methyl]-4-hydroxy-6-oxo-3,6-dihydro-2H-pyran-2-yl}ethyl)-2-(trifluoromethyl)phenyl]-2-ethylbutanenitrile]",7.27
6,"Cc1cc(C)n2nc(CC3=C(O)CC(CCc4ccnc(C(C)C)c4)(C4CCCC4)OC3=O)nc2n1 (centres unmarked) [A(33), 6Cyclopentyl-3-[(5,7-dimethyl[1,2,4]triazolo[1,5-a]pyrimidin-2-yl)methyl]-4-hydroxy-6-[2-(2-isopropylpyridin-4-yl)ethyl]-5,6-dihydro-2H-pyran-2-one]",8.15
7,"CCc1cc(CCC2(C3CCCC3)CC(O)=C(Cc3nc4nc(C)cc(C)n4n3)C(=O)O2)ccc1C(=O)OC (centres unmarked) [A(118), Methyl 4-(2-{2-cyclopentyl-5-[(5,7-dimethyl[1,2,4]triazolo[1,5a]pyrimidin-2-yl)methyl]-4-hydroxy-6oxo-3,6-dihydro-2H-pyran-2-yl}ethyl)-2-ethylbenzoate]",8.15
8,"CCn1nc(C)c(CC2=C(O)CC(CCc3cc(Cl)c(OC)cc3OC)(C3CCCC3)OC2=O)c1C (centres unmarked) [B(18), 6-[2-(5-Chloro-2,4-dimethoxyphenyl)ethyl]-6-cyclopentyl-3-[(1-ethyl-3,5-dimethyl-1H-pyrazol-4-yl)methyl]-4-hydroxy-5,6-dihydro-2H-pyran-2-one]",6.77
9,"CCc1cc(CCC2(C3CCCC3)CC(O)=C(Cc3nc4nc(C)cc(C)n4n3)C(=O)O2)ccc1NS(=O)(=O)CC (centres unmarked) [A(108), N-[4-(2-{2-cyclopentyl-5-[(5,7-dimethyl[1,2,4]triazolo[1,5-a]pyrimidin-2-yl)methyl]-4-hydroxy-6-oxo-3,6-dihydro-2H-pyran-2-yl}ethyl)-2-ethylphenyl]ethanesulfonamide]",8.22
10,"CCc1cc(CCC2(C3CCCC3)CC(=O)CC(=O)O2)ccc1CO (centres unmarked) [B(34), 6-Cyclopentyl-6-{2-[3-ethyl-4-(hydroxymethyl)phenyl]ethyl}dihydro-2H-pyran-2,4(3H)-dione]",5.89
11,"COc1cc(CO)c(F)cc1CCC1(C2CCCC2)CC(O)=C(Cc2nc3nc(C)cc(C)n3n2)C(=O)O1 (centres unmarked) [A(80), 6-Cyclopentyl-3-[(5,7-dimethyl[1,2,4]triazolo[1,5-a]pyrimidin-2-yl)methyl]-6-{2-[5-fluoro-4-(hydroxymethyl)-2-methoxyphenyl]ethyl}-4-hydroxy-5,6-dihydro-2H-pyran-2-one]",7.66
12,"COc1ccc(CCC2(C3CCCC3)CC(O)=C(Cc3nc4nc(C)cc(C)n4n3)C(=O)O2)cc1C(F)(F)F (centres unmarked) [A(23), 6-Cyclopentyl-3-[(5,7-dimethyl[1,2,4]triazolo[1,5-a]pyrimidin-2-yl)methyl]-4-hydroxy-6-{2-[4-methoxy-3-(trifluoromethyl)phenyl]ethyl}-5,6-dihydro-2H-pyran-2-one]",8.22

# The next molecules have a higher pIC50 than those just listed; values first:
row,pIC50,Compound
1,8.52,"Cc1cc(C)n2nc(CC3=C(O)CC(CCc4ccc(O)c(CC(F)(F)F)c4)(C4CCCC4)OC3=O)nc2n1 (single isomer, unassigned) [A(74), 6-Cyclopentyl-3-[(5,7-dimethyl[1,2,4]triazolo[1,5-a]pyrimidin-2-yl)methyl]-4-hydroxy-6-{2-[4-hydroxy-3-(2,2,2-trifluoroethyl)phenyl]ethyl}-5,6-dihydro-2H-pyran-2-one]"
2,8.52,"CCCOc1cnc(CC)cc1CCC1(C2CCCC2)CC(O)=C(Cc2nc3nc(C)cc(C)n3n2)C(=O)O1 (single isomer, unassigned) [A(54), 6-Cyclopentyl-3-[(5,7-dimethyl[1,2,4]triazolo[1,5-a]pyrimidin-2-yl)methyl]-6-[2-(2-ethyl-5-propoxypyridin-4-yl)ethyl]-4-hydroxy-5,6-dihydro-2H-pyran-2-one]"
3,8.52,"CCOc1cnc(CC)cc1CCC1(C2CCCC2)CC(O)=C(Cc2nc3nc(C)cc(C)n3n2)C(=O)O1 (single isomer, unassigned) [A(52), 6-cyclopentyl-3-[(5,7-dimethyl[1,2,4]triazolo[1,5-a]pyrimidin-2-yl)methyl]-6-[2-(5-ethoxy-2-ethylpyridin-4-yl)ethyl]-4-hydroxy-5,6-dihydro-2H-pyran-2-one]"
4,8.40,"CCOc1cc(O)c(CC)cc1CCC1(C2CCCC2)CC(O)=C(Cc2nc3nc(C)cc(C)n3n2)C(=O)O1 (centres unmarked) [A(22), 6-Cyclopentyl-3-[(5,7-dimethyl[1,2,4]triazolo[1,5-a]pyrimidin-2-yl)methyl]-6-[2-(2-ethoxy-5-ethyl-4-hydroxyphenyl)ethyl]-4-hydroxy-5,6-dihydro-2H-pyran-2-one]"
5,8.40,"CCCOc1cc(O)c(CCC2(C3CCCC3)CC(O)=C(Cc3nc4ncc(C)cn4n3)C(=O)O2)cc1CC (centres unmarked) [A(50), 6-Cyclopentyl-6-[2-(5-ethyl-2-hydroxy-4-propoxyphenyl)ethyl]-4-hydroxy-3-[(6-methyl[1,2,4]triazolo[1,5-a]pyrimidin-2-yl)methyl]-5,6-dihydro-2H-pyran-2-one]"
